In EP0326331B1, “Substituted quinolines and cinnolines” (Dow AgroSciences LLC, priority 1988, dated 1989):

Key:
Assay type in all cases: in vivo
[1] = test system: southern armyworm (Spodopetra eridania Cramer); experiment: Mite/insect screen, SAW; details: Spodoptera eridania, percent mortality, SAW, read-out: SAW RESULTS %; for mortality at 200 ppm: SM & MA RATE 200 PPM; for mortality at 400 ppm: SM & MA RATE 400 PPM
Outline: (§1)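 Percent mortality was scored after standard exposure periods, following spraying of leaves to runoff (both surfaces, 10 psi, 1 h drying) with water dilutions of compound in emulsifier-containing acetone/alcohol (50:50). Armyworms received excised treated leaves in dishes.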

[2] = test system: Pyricularia oryzae (rice blast); experiment: whole plant or invertebrate; details: disease control rating, foliar spray on rice, 400 ppm (+++ at 100 ppm)
[3] = test system: corn rootworm; experiment: Mite/insect screen, CRW; details: percent mortality; for mortality at 12 ppm / mortality at 24 ppm: read-out: CRW RESULTS %; for mortality at 24 ppm: CRW RATE 24.00 PPM
Outline: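 Corn rootworm mortality (%) was evaluated following standard exposure times. Test material was emulsified by dissolution in acetone/alcohol (1:1) containing sulfonate/nonionic emulsifier blends TOXIMUL R (23 g/L) and TOXIMUL S (13 g/L), and water-diluted to the indicated doses.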

[4] = test system: Twospotted spider mites (Tetranychus urticae Koch); experiment: Mite/insect screen, SM; details: percent mortality, SAW; for mortality at 200 ppm / mortality at 400 ppm: Tetranychus urticae, read-out: SM RESULTS %; for mortality at 400 ppm: SM & MA RATE 400 PPM
Outline: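 Read-out: percent mortality after standard exposure periods. Test solutions were water dilutions of compound dissolved in acetone/alcohol (50:50) with emulsifier blends; leaves were sprayed to runoff on both surfaces and air-dried for one hour before exposure.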

[5] = test system: melon aphids (Aphis gossypii Glover); experiment: Mite/insect screen, MA; details: percent mortality, SAW; for mortality at 200 ppm / mortality at 400 ppm: Aphis gossypii, read-out: MA RESULTS %; for mortality at 400 ppm: SM & MA RATE 400 PPM
Outline: as §1

[6] = test system: Botrytis cinerea (gray mold); experiment: Test 1 greenhouse foliar spray screen, gray mold on grape berries; details: disease control rating, spray on grape berries, 400 ppm (+++ at 100 ppm)
[7] = test system: Septoria tritici (leaf blotch); experiment: Test 1 greenhouse foliar spray screen, leaf blotch on wheat; details: disease control rating, foliar spray on wheat, 400 ppm (+++ at 100 ppm)
[8] = test system: Cercospora beticola (leaf spot); experiment: Test 1 greenhouse foliar spray screen, leaf spot on sugar beet; details: disease control rating, foliar spray on sugar beet, 400 ppm (+++ at 100 ppm)
[9] = test system: Pseudoperonospora cubensis (downy mildew); experiment: Test 1 greenhouse foliar spray screen, downy mildew on squash; details: disease control rating, foliar spray on squash, 400 ppm (+++ at 100 ppm)
[10] = test system: Venturia inaequalis (apple scab); experiment: Test 1 greenhouse foliar spray screen, apple scab on apple seedling; details: disease control rating, foliar spray on apple seedling, 400 ppm (+++ at 100 ppm)
[11] = test system: Puccinia recondita tritici (leaf rust); experiment: Test 1 greenhouse foliar spray screen, leaf rust on wheat; details: disease control rating, foliar spray on wheat, 400 ppm (+++ at 100 ppm)
[12] = test system: Erysiphe graminis tritici (powdery mildew); experiment: Test 1 greenhouse foliar spray screen, powdery mildew on wheat; details: disease control rating, foliar spray on wheat, 400 ppm (+++ at 100 ppm)

| SMILES | mortality at 200 ppm [1] | RICE BLAST [2] | mortality at 12 ppm ([3]; CRW RATE 12.00 PPM) | mortality at 200 ppm ([4]; SM & MA RATE 200 PPM) | mortality at 200 ppm ([5]; SM & MA RATE 200 PPM) | GRAY MOLD [6] | LEAF BLOT [7] | LEAF SPOT [8] | DOWN MDEW [9] | APPL SCAB [10] | LEAF RUST [11] | POWD MDEW [12] | CRW RESULTS % ([3]; CRW RATE 12.00 PPM) | SM RESULTS % ([4]; SM & MA RATE 200 PPM) | MA RESULTS % ([5]; SM & MA RATE 200 PPM) | mortality at 400 ppm [1] | mortality at 24 ppm [3] | mortality at 400 ppm [4] | mortality at 400 ppm [5] |
| --- | --- | --- | --- | --- | --- | --- | --- | --- | --- | --- | --- | --- | --- | --- | --- | --- | --- | --- | --- |
| CC(CNc1ccnc2c(F)cccc12)c1ccccc1 (stereo not drawn) [Example 77, 8-fluoro-N-(2-phenylpropyl)-4-quinolinamine] | 0% | + (20-89% control at 400 ppm) | 0% | 0% | 0% | - (0-19% control at 400 ppm) | - (0-19% control at 400 ppm) | - (0-19% control at 400 ppm) | +++ (90-100% control at 100 ppm) | + (20-89% control at 400 ppm) | ++ (90-100% control at 400 ppm) | + (20-89% control at 400 ppm) | – | – | – | – | – | – | – |
| Fc1ccc(CCNc2ccnc3c(F)cccc23)cc1 [Example 78, 8-fluoro-N-[2-(4-fluorophenyl)ethyl]-4-quinolinamine] | 20% | ++ (90-100% control at 400 ppm) | 0% | 0% | 0% | - (0-19% control at 400 ppm) | + (20-89% control at 400 ppm) | +++ (90-100% control at 100 ppm) | +++ (90-100% control at 100 ppm) | - (0-19% control at 400 ppm) | +++ (90-100% control at 100 ppm) | + (20-89% control at 400 ppm) | 0% | 0% | 0% | – | – | – | – |
| CC(CNc1ccnc2c(F)cccc12)(c1ccccc1)c1ccccc1 [Example 80, N-(2,2-diphenylpropyl)-8-fluoro-4-quinolinamine] | 0% | ++ (90-100% control at 400 ppm) | 0% | 0% | 0% | - (0-19% control at 400 ppm) | - (0-19% control at 400 ppm) | + (20-89% control at 400 ppm) | +++ (90-100% control at 100 ppm) | - (0-19% control at 400 ppm) | ++ (90-100% control at 400 ppm) | + (20-89% control at 400 ppm) | – | – | – | – | – | – | – |
| CCC(CNc1ccnc2c(F)cccc12)c1ccccc1 (stereo not drawn) [Example 81, 8-fluoro-N-(2-phenylbutyl)-4-quinolinamine] | 0% | ++ (90-100% control at 400 ppm) | 0% | 0% | 0% | - (0-19% control at 400 ppm) | - (0-19% control at 400 ppm) | + (20-89% control at 400 ppm) | +++ (90-100% control at 100 ppm) | - (0-19% control at 400 ppm) | ++ (90-100% control at 400 ppm) | + (20-89% control at 400 ppm) | – | – | – | – | – | – | – |
| Fc1cccc2c(NCCc3ccccc3Cl)ccnc12 [Example 82, N-[2-(2-chlorophenyl)ethyl]-8-fluoro-4-quinolinamine] | 0% | +++ (90-100% control at 100 ppm) | 0% | 0% | 0% | - (0-19% control at 400 ppm) | +++ (90-100% control at 100 ppm) | + (20-89% control at 400 ppm) | +++ (90-100% control at 100 ppm) | - (0-19% control at 400 ppm) | +++ (90-100% control at 100 ppm) | + (20-89% control at 400 ppm) | – | – | – | – | – | – | – |
| Fc1cccc2c(NCCc3ccc(C(F)(F)F)cc3)ccnc12 [Example 83, 8-fluoro-N-[2-[4-(trifluoromethyl)phenyl]ethyl]-4-quinolinamine] | 0% | ++ (90-100% control at 400 ppm) | 0% | 0% | 0% | +++ (90-100% control at 100 ppm) | - (0-19% control at 400 ppm) | + (20-89% control at 400 ppm) | ++ (90-100% control at 400 ppm) | - (0-19% control at 400 ppm) | +++ (90-100% control at 100 ppm) | + (20-89% control at 400 ppm) | – | – | – | – | – | – | – |
| COc1ccc(CCNc2ccnc3cc(Cl)ccc23)cc1 [Example 84, 7-chloro-N-[2-(4-methoxyphenyl)ethyl]-4-quinolinamine] | 10% | ++ (90-100% control at 400 ppm) | 0% | 0% | 0% | - (0-19% control at 400 ppm) | - (0-19% control at 400 ppm) | + (20-89% control at 400 ppm) | ++ (90-100% control at 400 ppm) | - (0-19% control at 400 ppm) | ++ (90-100% control at 400 ppm) | +++ (90-100% control at 100 ppm) | – | – | – | 0% | 0% | 0% | 0% |
| Cc1ccc(CCNc2ccnc3c(Cl)cccc23)cc1 [Example 87, 8-chloro-N-[2-(4-methylphenyl)ethyl]-4-quinolinamine] | 0% | - (0-19% control at 400 ppm) | 0% | 0% | 0% | - (0-19% control at 400 ppm) | - (0-19% control at 400 ppm) | - (0-19% control at 400 ppm) | +++ (90-100% control at 100 ppm) | - (0-19% control at 400 ppm) | + (20-89% control at 400 ppm) | - (0-19% control at 400 ppm) | – | – | – | 0% | 0% | 0% | 0% |
| Cc1ccc2c(NCCc3ccc(Cl)cc3)ccnc2c1C [Example 88, N-[2-(4-chlorophenyl)ethyl]-7,8-dimethyl-4-quinolinamine] | 0% | - (0-19% control at 400 ppm) | 0% | 0% | 0% | - (0-19% control at 400 ppm) | - (0-19% control at 400 ppm) | + (20-89% control at 400 ppm) | ++ (90-100% control at 400 ppm) | - (0-19% control at 400 ppm) | ++ (90-100% control at 400 ppm) | - (0-19% control at 400 ppm) | – | – | – | 0% | 0% | 0% | 0% |
| Fc1cccc2c(NCCc3ccccc3)c(Br)cnc12 [Example 91, 3-bromo-8-fluoro-N-(2-phenylethyl)-4-quinolinamine] | 0% | + (20-89% control at 400 ppm) | 0% | 0% | 0% | - (0-19% control at 400 ppm) | - (0-19% control at 400 ppm) | - (0-19% control at 400 ppm) | ++ (90-100% control at 400 ppm) | - (0-19% control at 400 ppm) | - (0-19% control at 400 ppm) | + (20-89% control at 400 ppm) | – | – | – | – | – | – | – |
| CC(Cc1ccccc1)Nc1ccnc2c(F)cccc12 (stereo not drawn) [Example 92, 8-fluoro-H-(1-methyl-2-phenylethyl)-4-quinolinamine] | 0% | ++ (90-100% control at 400 ppm) | 0% | 0% | 0% | - (0-19% control at 400 ppm) | +++ (90-100% control at 100 ppm) | + (20-89% control at 400 ppm) | ++ (90-100% control at 400 ppm) | - (0-19% control at 400 ppm) | +++ (90-100% control at 100 ppm) | + (20-89% control at 400 ppm) | – | – | – | – | – | – | – |
